Measured values published in PubChem BioAssay AID2151 (NMMLSC, 2009).
Calls of active or inactive are those of the source. The rule behind the calls is not given here.

Molecular target: MEK5 PB1 domain binding to MEKK2 (MAP3K2) mutant PB1, human
Experiment: blockers of MEK5 association with mutant MEKK2 – biochemical, bead multiplex flow cytometry, SAR follow-up (AID 2151)
Conditions: Bead-based multiplex flow cytometry

EC50 | SMILES
> 30 µM (inactive) | CCOc1cccc(-c2nn3c(-c4cccs4)nnc3s2)c1
> 30 µM (inactive) | COc1cc([N+](=O)[O-])ccc1-c1nn2c(-c3ccco3)nnc2s1
> 30 µM (inactive) | c1coc(-c2nnc3sc(C4CCCCCC4)nn23)c1
> 30 µM (inactive) | c1coc(-c2nnc3sc(C4CCCCC4)nn23)c1
> 30 µM (inactive) | COc1cc([N+](=O)[O-])ccc1-c1nn2c(-c3ccccn3)nnc2s1
> 30 µM (inactive) | c1c[nH]c(-c2nn3c(-c4ccco4)nnc3s2)c1
> 30 µM (inactive) | COc1ccc(-c2nn3c(-c4ccccn4)nnc3s2)cc1OC
> 30 µM (inactive) | c1csc(Cc2nn3c(-c4ccncc4)nnc3s2)c1
> 30 µM (inactive) | c1ccc(-c2nnc3sc(C4CCCCC4)nn23)nc1
> 30 µM (inactive) | c1ccc(-c2nnc3sc(C4CCCCCC4)nn23)nc1
> 30 µM (inactive) | COc1cccc(-c2nn3c(-c4ccccn4)nnc3s2)c1
> 30 µM (inactive) | CCOc1cccc(-c2nn3c(-c4ccco4)nnc3s2)c1
> 30 µM (inactive) | c1ccc(-c2nnc3sc(-c4ccc[nH]4)nn23)nc1
